# Source: PubChem BioAssay (NCI)
#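 Grown in 96-well plates, cells were treated for 48 hours with each compound at five concentrations. Insufficient inhibition: endpoint recorded as highest concentration tested. TGI denotes the concentration required for complete inhibition of growth.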
# Key:
# DMS 114 small cell lung = assay: DTP human tumour cell line panel, 48 h
# LXFL 529 NSCLC = assay: DTP human tumour cell line panel, 48 h
Structure (SMILES),TGI (DMS 114 small cell lung) [µM],TGI (LXFL 529 NSCLC) [µM]
O=C(O)CCC(=O)OCN1C(=O)C2C3C=CC(C2C1=O)C1C2C(=O)N(COC(=O)CCC(=O)O)C(=O)C2C31 (stereo not drawn),> 67.9,> 100
O=C(CCN1CCOCC1)/C(=C/c1ccccc1)c1ccccc1,12,
